Laboratory results: PubChem BioAssay (NCI)
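Interpolation was linear, between the two tested concentrations surrounding the appropriate level; five concentrations were tested over 48 hours in 96-well plates. TGI denotes the concentration required for complete inhibition of growth.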

What follows are molecules tested on U251 CNS (assay: NCI tumour cell line growth inhibition, 48 h).

Structure (SMILES) | TGI
Cc1ccc([N+](=O)[O-])cc1N=NC(=O)NNc1cc([N+](=O)[O-])ccc1C | 97.6 µM
COC(=O)CCc1cc(OC)c2c(c1)[C@H](C(=O)OC)[C@@H](c1ccc(O)c(OC)c1)O2 | > 100 µM
COC(=O)CN1c2nc(C#N)c(C#N)nc2N(CC(=O)OC)c2nc(C#N)c(C#N)nc21 | > 57.1 µM
CC(C)=CCC/C(C)=C/COC(C)(C)C1=CCC(C)CC1 (centres undefined) (tested in a mixture with another compound) | > 100 µM
C/C1=C\CC[C@@]2(C)O[C@@H]2C[C@@H](C2(C)CO2)CC/C(C)=C/CC1 (some centres undefined) | 29.6 µM
Clc1ccc(CSCCc2ccncc2)cc1Cl | 28.5 µM
COc1ccc(S(=O)(=O)N2C(=O)CCC2C(=O)NN)cc1 (centres undefined) | > 100 µM
CCCCn1cnc2c(c(CC#N)nn2-c2ccccc2)c1=N | > 100 µM
O=C1CC(C(O)(C(F)(F)F)C(F)(F)Cl)CCC1C(O)(C(F)(F)F)C(F)(F)Cl (centres undefined) | > 10 µM
C=CCNC(=S)N=Nc1c(O)[nH]c2ccc([N+](=O)[O-])cc12 | > 100 µM
C[C@]12CC[C@@H]3c4ccc(O)cc4CC[C@H]3[C@@H]1C/C(=C\c1ccncc1)[C@@H]2O | 39.6 µM
COc1cc(-c2cc(=O)c3cc4c(=O)cc(-c5cc(OC)c(OC)c(OC)c5)oc4cc3o2)cc(OC)c1OC | 23.4 µM
O=c1ccn(C2OC(CO)C(P(=O)(O)O)C2O)c(=O)[nH]1 (centres undefined) | > 100 µM
NCCCN1CCN(CCCNc2ccc3nnn4c5ccccc5c(=O)c2c34)CC1 | > 100 µM
O=C(Oc1cc(=O)c(OC(=O)c2ccccc2)co1)c1ccccc1 | > 100 µM

What follows are molecules tested on HL-60(TB) leukemia (assay: NCI tumour cell line growth inhibition, 48 h).

Structure (SMILES) | TGI
CCc1c[n+]([O-])c(C)cc1[N+](=O)[O-] | > 100 µM
COc1ccc(-c2c3c([nH]c(=S)c2C#N)CC(C)(C)CC3=O)cc1 | > 100 µM
N#CC(N=Nc1ccc(Cl)cc1)c1nc2ccccc2o1 (centres undefined) | > 100 µM
COc1ccc(/C=C2\C[C@H]3[C@@H]4CCC5=C/C(=N/O)CC[C@]5(C)[C@H]4CC[C@]3(C)\C2=N\O)cc1OC | 76.8 µM
Cc1ccc([N+](=O)[O-])cc1N=NC(=O)NNc1cc([N+](=O)[O-])ccc1C | > 100 µM
COC(=O)CCc1cc(OC)c2c(c1)[C@H](C(=O)OC)[C@@H](c1ccc(O)c(OC)c1)O2 | 36 µM
COC(=O)CN1c2nc(C#N)c(C#N)nc2N(CC(=O)OC)c2nc(C#N)c(C#N)nc21 | 5.61 µM
CC(C)=CCC/C(C)=C/COC(C)(C)C1=CCC(C)CC1 (centres undefined) (tested in a mixture with another compound) | 50.9 µM
C/C1=C\CC[C@@]2(C)O[C@@H]2C[C@@H](C2(C)CO2)CC/C(C)=C/CC1 (some centres undefined) | 71.9 µM
Clc1ccc(CSCCc2ccncc2)cc1Cl | 40 µM
COc1ccc(S(=O)(=O)N2C(=O)CCC2C(=O)NN)cc1 (centres undefined) | > 100 µM
CCCCn1cnc2c(c(CC#N)nn2-c2ccccc2)c1=N | > 100 µM
O=C1CC(C(O)(C(F)(F)F)C(F)(F)Cl)CCC1C(O)(C(F)(F)F)C(F)(F)Cl (centres undefined) | > 10 µM
C=CCNC(=S)N=Nc1c(O)[nH]c2ccc([N+](=O)[O-])cc12 | > 100 µM
C[C@]12CC[C@@H]3c4ccc(O)cc4CC[C@H]3[C@@H]1C/C(=C\c1ccncc1)[C@@H]2O | 44.9 µM
COc1cc(-c2cc(=O)c3cc4c(=O)cc(-c5cc(OC)c(OC)c(OC)c5)oc4cc3o2)cc(OC)c1OC | > 100 µM
O=c1ccn(C2OC(CO)C(P(=O)(O)O)C2O)c(=O)[nH]1 (centres undefined) | > 100 µM
NCCCN1CCN(CCCNc2ccc3nnn4c5ccccc5c(=O)c2c34)CC1 | > 100 µM
O=C(Oc1cc(=O)c(OC(=O)c2ccccc2)co1)c1ccccc1 | > 100 µM

The molecules below were run on SK-OV-3 ovarian (assay: NCI tumour cell line growth inhibition, 48 h).

Structure (SMILES) | TGI
CCc1c[n+]([O-])c(C)cc1[N+](=O)[O-] | > 100 µM
N#CC(N=Nc1ccc(Cl)cc1)c1nc2ccccc2o1 (centres undefined) | > 100 µM
COc1ccc(/C=C2\C[C@H]3[C@@H]4CCC5=C/C(=N/O)CC[C@]5(C)[C@H]4CC[C@]3(C)\C2=N\O)cc1OC | > 100 µM
Cc1ccc([N+](=O)[O-])cc1N=NC(=O)NNc1cc([N+](=O)[O-])ccc1C | 36 µM
COC(=O)CCc1cc(OC)c2c(c1)[C@H](C(=O)OC)[C@@H](c1ccc(O)c(OC)c1)O2 | > 100 µM
COC(=O)CN1c2nc(C#N)c(C#N)nc2N(CC(=O)OC)c2nc(C#N)c(C#N)nc21 | 35.2 µM
CC(C)=CCC/C(C)=C/COC(C)(C)C1=CCC(C)CC1 (centres undefined) (tested in a mixture with another compound) | > 100 µM
C/C1=C\CC[C@@]2(C)O[C@@H]2C[C@@H](C2(C)CO2)CC/C(C)=C/CC1 (some centres undefined) | > 100 µM
Clc1ccc(CSCCc2ccncc2)cc1Cl | 59.4 µM
COc1ccc(S(=O)(=O)N2C(=O)CCC2C(=O)NN)cc1 (centres undefined) | > 100 µM
CCCCn1cnc2c(c(CC#N)nn2-c2ccccc2)c1=N | > 100 µM
O=C1CC(C(O)(C(F)(F)F)C(F)(F)Cl)CCC1C(O)(C(F)(F)F)C(F)(F)Cl (centres undefined) | > 10 µM
C=CCNC(=S)N=Nc1c(O)[nH]c2ccc([N+](=O)[O-])cc12 | > 100 µM
C[C@]12CC[C@@H]3c4ccc(O)cc4CC[C@H]3[C@@H]1C/C(=C\c1ccncc1)[C@@H]2O | > 100 µM
COc1cc(-c2cc(=O)c3cc4c(=O)cc(-c5cc(OC)c(OC)c(OC)c5)oc4cc3o2)cc(OC)c1OC | 41.4 µM
NCCCN1CCN(CCCNc2ccc3nnn4c5ccccc5c(=O)c2c34)CC1 | > 100 µM
O=C(Oc1cc(=O)c(OC(=O)c2ccccc2)co1)c1ccccc1 | > 100 µM

The molecules below were run on SNB-19 CNS (assay: NCI tumour cell line growth inhibition, 48 h).

Structure (SMILES) | TGI
CCc1c[n+]([O-])c(C)cc1[N+](=O)[O-] | > 100 µM
COc1ccc(-c2c3c([nH]c(=S)c2C#N)CC(C)(C)CC3=O)cc1 | > 100 µM
N#CC(N=Nc1ccc(Cl)cc1)c1nc2ccccc2o1 (centres undefined) | > 100 µM
COc1ccc(/C=C2\C[C@H]3[C@@H]4CCC5=C/C(=N/O)CC[C@]5(C)[C@H]4CC[C@]3(C)\C2=N\O)cc1OC | > 100 µM
Cc1ccc([N+](=O)[O-])cc1N=NC(=O)NNc1cc([N+](=O)[O-])ccc1C | > 100 µM
COC(=O)CCc1cc(OC)c2c(c1)[C@H](C(=O)OC)[C@@H](c1ccc(O)c(OC)c1)O2 | > 100 µM
COC(=O)CN1c2nc(C#N)c(C#N)nc2N(CC(=O)OC)c2nc(C#N)c(C#N)nc21 | > 65.9 µM
CC(C)=CCC/C(C)=C/COC(C)(C)C1=CCC(C)CC1 (centres undefined) (tested in a mixture with another compound) | > 100 µM
C/C1=C\CC[C@@]2(C)O[C@@H]2C[C@@H](C2(C)CO2)CC/C(C)=C/CC1 (some centres undefined) | 41.3 µM
Clc1ccc(CSCCc2ccncc2)cc1Cl | 35.6 µM
COc1ccc(S(=O)(=O)N2C(=O)CCC2C(=O)NN)cc1 (centres undefined) | > 100 µM
CCCCn1cnc2c(c(CC#N)nn2-c2ccccc2)c1=N | > 100 µM
O=C1CC(C(O)(C(F)(F)F)C(F)(F)Cl)CCC1C(O)(C(F)(F)F)C(F)(F)Cl (centres undefined) | > 10 µM
C=CCNC(=S)N=Nc1c(O)[nH]c2ccc([N+](=O)[O-])cc12 | > 100 µM
C[C@]12CC[C@@H]3c4ccc(O)cc4CC[C@H]3[C@@H]1C/C(=C\c1ccncc1)[C@@H]2O | > 100 µM
COc1cc(-c2cc(=O)c3cc4c(=O)cc(-c5cc(OC)c(OC)c(OC)c5)oc4cc3o2)cc(OC)c1OC | 59.6 µM
O=c1ccn(C2OC(CO)C(P(=O)(O)O)C2O)c(=O)[nH]1 (centres undefined) | > 100 µM
NCCCN1CCN(CCCNc2ccc3nnn4c5ccccc5c(=O)c2c34)CC1 | 46.4 µM
O=C(Oc1cc(=O)c(OC(=O)c2ccccc2)co1)c1ccccc1 | > 100 µM

Each molecule was assayed on OVCAR-8 ovarian (assay: NCI tumour cell line growth inhibition, 48 h).

Structure (SMILES) | TGI
CCc1c[n+]([O-])c(C)cc1[N+](=O)[O-] | > 100 µM
COc1ccc(-c2c3c([nH]c(=S)c2C#N)CC(C)(C)CC3=O)cc1 | > 100 µM
N#CC(N=Nc1ccc(Cl)cc1)c1nc2ccccc2o1 (centres undefined) | > 100 µM
COc1ccc(/C=C2\C[C@H]3[C@@H]4CCC5=C/C(=N/O)CC[C@]5(C)[C@H]4CC[C@]3(C)\C2=N\O)cc1OC | > 100 µM
Cc1ccc([N+](=O)[O-])cc1N=NC(=O)NNc1cc([N+](=O)[O-])ccc1C | 70 µM
COC(=O)CCc1cc(OC)c2c(c1)[C@H](C(=O)OC)[C@@H](c1ccc(O)c(OC)c1)O2 | > 100 µM
COC(=O)CN1c2nc(C#N)c(C#N)nc2N(CC(=O)OC)c2nc(C#N)c(C#N)nc21 | > 22.3 µM
CC(C)=CCC/C(C)=C/COC(C)(C)C1=CCC(C)CC1 (centres undefined) (tested in a mixture with another compound) | > 100 µM
C/C1=C\CC[C@@]2(C)O[C@@H]2C[C@@H](C2(C)CO2)CC/C(C)=C/CC1 (some centres undefined) | 39.6 µM
Clc1ccc(CSCCc2ccncc2)cc1Cl | 46 µM
COc1ccc(S(=O)(=O)N2C(=O)CCC2C(=O)NN)cc1 (centres undefined) | > 100 µM
CCCCn1cnc2c(c(CC#N)nn2-c2ccccc2)c1=N | > 100 µM
O=C1CC(C(O)(C(F)(F)F)C(F)(F)Cl)CCC1C(O)(C(F)(F)F)C(F)(F)Cl (centres undefined) | > 10 µM
C=CCNC(=S)N=Nc1c(O)[nH]c2ccc([N+](=O)[O-])cc12 | > 100 µM
C[C@]12CC[C@@H]3c4ccc(O)cc4CC[C@H]3[C@@H]1C/C(=C\c1ccncc1)[C@@H]2O | 31.7 µM
COc1cc(-c2cc(=O)c3cc4c(=O)cc(-c5cc(OC)c(OC)c(OC)c5)oc4cc3o2)cc(OC)c1OC | > 100 µM
O=c1ccn(C2OC(CO)C(P(=O)(O)O)C2O)c(=O)[nH]1 (centres undefined) | > 100 µM
NCCCN1CCN(CCCNc2ccc3nnn4c5ccccc5c(=O)c2c34)CC1 | > 100 µM
O=C(Oc1cc(=O)c(OC(=O)c2ccccc2)co1)c1ccccc1 | > 100 µM
